{
  "source": "patent US7018631B1",
  "about": "“Compositions and methods for sensitizing and inhibiting growth of human tumor cells” (St. Jude Children's Research Hospital, priority 1998, dated 2006)",
  "key": {"U-373 glioma cells": {"system": "U-373 glioma cells", "experiment": "Sensitization of U-373 glioma cells expressing CE to APC", "assay_type": "cell-based, human", "conditions": "2 h exposure", "experimental": "FIG. 7 is a linegraph showing a comparison of the sensitization, depicted as % survival on the Y-axis, of U-373 glioma cells exposed to APC, depicted as log[APC] at concentrations from 10^−8 to 10^−5 M on the X-axis, from in situ expression of rabbit liver CE (filled squares) and human alveolar macrophage CE (filled circles). Cells were exposed for 2 hours to APC.\n(§1) No known human enzyme activates APC. […] Thus, the combination of APC and sensitization of selected tumor cells with rabbit liver CE as described above can be used to produce a tumor-specific cell death while greatly minimizing the toxic side effects associated with administration of chemotherapy."}, "rabbit liver CE [1]": {"molecular_target": "T1, rabbit liver CE (Oryctolagus cuniculus, UniProt P12337)", "T1 sequence (P12337 19-565)": "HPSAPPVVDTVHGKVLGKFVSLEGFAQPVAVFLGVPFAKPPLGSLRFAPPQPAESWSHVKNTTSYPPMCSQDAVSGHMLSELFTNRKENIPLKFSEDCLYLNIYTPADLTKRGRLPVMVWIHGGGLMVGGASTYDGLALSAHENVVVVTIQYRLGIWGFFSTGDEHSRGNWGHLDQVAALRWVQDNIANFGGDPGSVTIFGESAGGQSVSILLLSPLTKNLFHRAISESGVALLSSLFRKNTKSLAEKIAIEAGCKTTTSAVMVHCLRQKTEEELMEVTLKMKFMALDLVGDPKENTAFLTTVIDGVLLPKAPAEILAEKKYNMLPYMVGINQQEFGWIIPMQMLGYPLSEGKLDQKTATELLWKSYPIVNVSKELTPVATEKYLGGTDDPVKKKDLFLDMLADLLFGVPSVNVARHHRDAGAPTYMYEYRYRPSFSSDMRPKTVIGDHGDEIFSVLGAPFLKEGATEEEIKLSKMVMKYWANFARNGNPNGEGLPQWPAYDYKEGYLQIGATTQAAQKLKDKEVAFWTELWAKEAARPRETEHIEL", "experiment": "In vitro conversion of APC to SN-38 by rabbit liver CE", "assay_type": "biochemical", "conditions": "FIG. 6", "from_the_text": "FIG. 6 is a linegraph showing the conversion of APC, depicted on the X-axis at nanomolar concentrations, to SN-38, depicted on the Y-axis at nanomolar concentrations, in vitro by the activity of rabbit liver CE given at doses of 0 (filled cross), 10 (filled hexagon), 25 (filled triangle), 50 (filled circle) or 100 (filled square) units. Data presented represent the mean response at each dose level.\nas §1"}, "pig liver CE": {"system": "pig liver CE", "experiment": "Metabolism of CPT-11 by commercially available pig liver CE, rapid fluorometric assay", "assay_type": "biochemical", "conditions": "partially purified commercial pig liver CE", "from_the_text": "(§2) The commercially available pig CE contained several proteins. […] Therefore, the rabbit proteins were chosen for further study."}, "[2]": {"system": "Rh30 rhabdomyosarcoma cells", "experiment": "Growth inhibition by CPT-11 of Rh30 cells stably transfected with pIRES or rabbit CE cDNA", "assay_type": "cell-based", "conditions": "Homo sapiens, Rh30, 2 h, 2 h exposure", "experimental": "The in vitro activity of rabbit liver CE was examined in tumor cell lines. […] Optimized conditions for electroporation were achieved using 180 V and 960 uF. […] Cells were grown for a minimum of 10 days before use in growth inhibition experiments. […] Drug was added to tissue culture medium of each of the stably transfected cell lines for two hours, after which time the medium was replaced with drug-free medium. Cells were then allowed to grow for 3 cell doublings as before."}, "Rh18 RMS xenografts": {"system": "Rh18 RMS xenografts", "conditions": "cited from earlier work"}, "Rh30 cells": {"system": "Rh30 cells", "experiment": "Growth inhibition of Rh30 cells by CPT-11 pre-incubated with rabbit liver CE", "assay_type": "cell-based, human", "conditions": "1 to 5 units of CE inactivated by heating; 1 h exposure", "from_the_text": "Another aspect of the present invention relates to the ability of compositions of the present invention comprising a polynucleotide encoding a carboxylesterase and a disease-specific responsive promoter of selected tumor cells to sensitize the tumor cells to a chemotherapeutic prodrug. The ability of the combination of a rabbit CE of the present invention and CPT-11 to sensitize human tumor cells to CPT-11 was examined. Experiments were first performed to confirm that the metabolite produced by the activity of a CE of the present invention is biologically active in vitro. Rh30 cells were then exposed to the products of each reaction for one hour and the percentage of growth inhibition was determined.\nEach reaction mixture was then filter-sterilized and Rh30 cells were exposed to drug for one hour, at which time the medium was replaced with drug-free medium containing serum. […] Cells were allowed to grow for 3 cell doubling times and cell numbers were determined."}, "[3]": {"system": "CEs purified from human tissues", "conditions": "human CE; cited from earlier work"}, "human NB-1691 xenografts": {"system": "human NB-1691 xenografts", "experiment": "NB-1691 xenograft model for MRD", "assay_type": "in vivo, mice", "conditions": "10 mg/kg CPT-11 daily for 5 days on two consecutive weeks", "from_the_text": "However, within 4–6 weeks, tumors are palpable in the exact position where the original xenograft was implanted. Since these tumors arise from cells that survived the initial cycle of chemotherapy, this model therefore mimics results seen in patients following surgical resection of the primary tumor and subsequent regrowth at the same site."}, "[4]": {"conditions": "patients; cited from earlier work"}, "[5]": {"system": "Rh30 rhabdosarcoma xenografts", "experiment": "Rh30 and Rh30pIRESrabbit xenografts in SCID mice treated with CPT-11", "assay_type": "in vivo", "conditions": "for tumor response: 2.5 mg CPT-11/kg/day, three cycles", "experimental": "The tumor growth rate is depicted on the Y-axis of each graph in terms of tumor volume and is plotted as a function of time in weeks (X-axis).\nIn this preclinical model, expression of the transfected cDNA for rabbit CE was maintained for at least 12 weeks.\nExperiments were performed in this model to compare the responses of mice bearing human Rh30 and Rh30pIRESrabbit xenografts. Rh30 rhabdosarcoma xenografts were transfected with pIRESneo plasmid containing the cDNA for rabbit liver CE and selected with G418. Expression of CE was confirmed by biochemical assay using the CE substrate o-NPA and maintained for at least 12 weeks. Two groups of SCID mice were then injected with the transfected Rh30pIRESrabbit cells subcutaneously into the flanks. A third group of control mice was injected in identical fashion with Rh30 cells not transfected with the plasmid."}, "rabbit liver CE [6]": {"molecular_target": "T1, rabbit liver CE", "experiment": "Metabolism of CPT-11 by commercially available rabbit liver CE, rapid fluorometric assay", "assay_type": "biochemical", "conditions": "partially purified commercial rabbit liver CE", "from_the_text": "as §2"}, "[7]": {"system": "U373 glioblastoma xenografts", "experiment": "U373 glioblastoma xenografts in SCID mice treated with CPT-11", "assay_type": "in vivo", "conditions": "7.5 mg/kg/day, three cycles", "from_the_text": "The tumor growth rate is depicted on the Y-axis in terms of tumor volume and is plotted as a function of time in weeks (X-axis). Open circles depict the tumor volume of untreated U373 xenografts expressing rabbit CE. Filled triangles depict the response of control xenografts (no rabbit CE) treated with CPT-11. Filled squares depict the response of cells expressing rabbit CE and treated with CPT-11. […] Each point represents the mean of 14 tumors in 7 individual mice.\nSimilar studies were performed employing U373 glioblastoma cells transfected with the pIRESneo plasmid or with pIRESneo containing the cDNA for rabbit liver CE and selected with G418. Expression of CE in the tumor cells was confirmed by biochemical assay using the substrate o-NPA. Cells were injected subcutaneously into the flanks of the SCID mice."}, "topoisomerase I": {"molecular_target": "T2, topoisomerase I (Homo sapiens, UniProt P11387)", "T2 sequence (P11387 1-765)": "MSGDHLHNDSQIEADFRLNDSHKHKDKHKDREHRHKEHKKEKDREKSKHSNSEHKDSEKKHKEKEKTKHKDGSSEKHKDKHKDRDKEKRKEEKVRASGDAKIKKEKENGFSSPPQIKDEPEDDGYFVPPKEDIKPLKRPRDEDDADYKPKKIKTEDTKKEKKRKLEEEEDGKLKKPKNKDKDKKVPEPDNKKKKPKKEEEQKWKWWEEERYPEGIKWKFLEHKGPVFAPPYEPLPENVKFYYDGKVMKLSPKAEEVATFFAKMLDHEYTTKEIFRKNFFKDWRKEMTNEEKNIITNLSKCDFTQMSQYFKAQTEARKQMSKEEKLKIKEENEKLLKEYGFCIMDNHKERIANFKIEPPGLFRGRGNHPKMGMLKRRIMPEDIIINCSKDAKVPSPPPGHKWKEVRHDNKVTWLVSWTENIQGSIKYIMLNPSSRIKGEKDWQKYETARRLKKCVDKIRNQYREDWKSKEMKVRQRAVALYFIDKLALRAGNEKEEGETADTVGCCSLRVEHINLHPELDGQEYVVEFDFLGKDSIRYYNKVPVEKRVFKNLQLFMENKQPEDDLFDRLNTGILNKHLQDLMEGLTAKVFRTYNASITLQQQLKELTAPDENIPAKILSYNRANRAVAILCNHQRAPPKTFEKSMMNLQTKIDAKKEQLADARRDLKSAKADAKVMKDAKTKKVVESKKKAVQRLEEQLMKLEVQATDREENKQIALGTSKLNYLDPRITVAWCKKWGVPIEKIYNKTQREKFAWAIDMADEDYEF", "conditions": "cited from earlier work"}, "[8]": {"conditions": "tumors not expressing CE (Rh30)"}},
  "note": "Entries after “also recorded” stand apart in the source; their conditions may differ. Like-named read-outs stand apart in the source and are kept apart here.",
  "data": [
    {"smiles": "CCc1c2c(nc3ccc(OC(=O)N4CCC(NCCCCC(=O)O)CC4)cc13)-c1cc3c(c(=O)n1C2)COC(=O)[C@]3(O)CC", "note": "[APC]", "values": [
      {"measurement": "sensitization to growth inhibitory effects of APC", "setting": "U-373 glioma cells; U-373 cells expressing human alveolar macrophage CE", "result": "not"},
      {"measurement": "sensitization to growth inhibitory effects of APC", "setting": "U-373 glioma cells; U-373 cells expressing rabbit liver CE", "result": "sensitized"},
      {"measurement": "conversion of APC to SN-38", "setting": "rabbit liver CE [1]", "result": "converted to SN-38 in a concentration-dependent manner"}
    ]},
    {"smiles": "CCc1c2c(nc3ccc(OC(=O)N4CCC(N5CCCCC5)CC4)cc13)-c1cc3c(c(=O)n1C2)COC(=O)[C@]3(O)CC", "note": "[CPT-11, 7-ethyl-10-[4-(1-piperidino)-1-piperidino]carbonyloxycamptothecin]", "values": [
      {"measurement": "metabolism of CPT-11", "setting": "pig liver CE", "result": "metabolized CPT-11 efficiently"},
      {"measurement": "IC50", "setting": "[2]; read-out: IC50 of CPT-11, Rh30pIRES cells (no CE cDNA)", "result": 4330, "unit": "nM"},
      {"measurement": "IC50", "setting": "[2]; read-out: IC50 of CPT-11, Rh30pIRESrabbit cells (rabbit CE cDNA)", "result": 576, "unit": "nM"},
      {"measurement": "tumor response", "setting": "Rh18 RMS xenografts; 10 mg/kg/day, same schedule", "result": "only partial tumor regression"},
      {"measurement": "tumor response", "setting": "Rh18 RMS xenografts; 20 mg of CPT-11/kg/day daily for 5 days for two weeks", "result": "complete regressions"},
      {"measurement": "inhibition of cell growth", "setting": "Rh30 cells", "result": "no inhibition of cell growth"},
      {"measurement": "prodrug converted to active drug SN-38", "setting": "[3]", "result": "less than 5%"},
      {"measurement": "time until tumors are palpable again at the original site", "setting": "human NB-1691 xenografts", "result": "4–6 weeks"},
      {"measurement": "tumor response", "setting": "human NB-1691 xenografts", "result": "complete regression"},
      {"measurement": "dose-limiting toxicities", "setting": "[4]", "result": "myelosuppression and secretory diarrhea"},
      {"measurement": "tumor response", "setting": "[5]; tumors expressing rabbit CE (Rh30pIRESrabbit), 5 days/week for 2 weeks, 12 weeks", "result": "complete tumor regression; also recorded: regressed completely and did not regrow"},
      {"measurement": "time to regrowth after CPT-11 treatment stopped", "setting": "[5]; [8]", "result": "within one week"},
      {"measurement": "tumor response", "setting": "[5]; [8]", "result": "initial regression but regrowth; also recorded: regressed only transiently"},
      {"measurement": "metabolism of CPT-11", "setting": "rabbit liver CE [6]", "result": "metabolized CPT-11 efficiently"},
      {"measurement": "tumor response", "setting": "[7]; xenografts from cells transfected with control plasmid (no rabbit CE)", "result": "stable disease but no significant regression; also recorded: stable disease with no significant regression"},
      {"measurement": "tumor response", "setting": "[7]; xenografts from cells transfected with plasmid encoding rabbit CE", "result": "tumor regression was seen only in treated cells expressing rabbit CE; also recorded: regressed completely"}
    ]},
    {"smiles": "CCc1c2c(nc3ccc(O)cc13)-c1cc3c(c(=O)n1C2)COC(=O)[C@]3(O)CC", "note": "[SN-38, 7-ethyl-10-hydroxy-camptothecin]", "values": [
      {"measurement": "inhibition of topoisomerase I", "setting": "topoisomerase I", "result": "potent inhibitor"}
    ]}
  ]
}
